“And” between values parts separate entries of the source, which are not always exact repeats. Equal values may be shown once. Inconclusive results and toxic doses are left out. Rule as the data show it: active = T/C of 150% or more; inactive = T/C below 125%.
System: L1210 leukemia ip in BDF1 mice, survival T/C
Experiment: NCI In Vivo Anticancer Drug Screen. Data for tumor model L1210 Leukemia (intraperitoneal) in B6D2F1 (BDF1) mice
Conditions: endpoint: mean survival time, higher = longer survival
Procedure, shortened: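 Tumor was transplanted into mice, which were then dosed with test compound or vehicle alone. Survival was recorded for each group, and the treated figure was expressed relative to the control figure.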

[1] = dose: 25.0 mg/kg/injection, schedule: Q01DX009 (ip), vehicle: saline with Tween-80
[2] = dose: 50.0 mg/kg/injection, schedule: Q01DX009 (ip), vehicle: saline with Tween-80
[3] = dose: 100.0 mg/kg/injection, schedule: Q01DX009 (ip), vehicle: saline with Tween-80
[4] = dose: 100.0 mg/kg/injection, schedule: Q01DX009 (ip), vehicle: Klucel (hydroxypropylcellulose) (HPC)
[5] = dose: 200.0 mg/kg/injection, schedule: Q01DX009 (ip), vehicle: Klucel (hydroxypropylcellulose) (HPC)
[6] = dose: 400.0 mg/kg/injection, schedule: Q01DX009 (ip), vehicle: Klucel (hydroxypropylcellulose) (HPC)
[7] = dose: 100.0 mg/kg/injection, schedule: Q01DX001 (ip), vehicle: saline
[8] = dose: 200.0 mg/kg/injection, schedule: Q01DX001 (ip), vehicle: saline
[9] = dose: 400.0 mg/kg/injection, schedule: Q01DX001 (ip), vehicle: saline
[10] = dose: 100.0 mg/kg/injection, schedule: Q04DX002 (ip), vehicle: Klucel (hydroxypropylcellulose) (HPC)
[11] = dose: 200.0 mg/kg/injection, schedule: Q04DX002 (ip), vehicle: Klucel (hydroxypropylcellulose) (HPC)
[12] = dose: 100.0 mg/kg/injection, schedule: Q01DX001 (ip), vehicle: Klucel (hydroxypropylcellulose) (HPC)
[13] = dose: 200.0 mg/kg/injection, schedule: Q01DX001 (ip), vehicle: Klucel (hydroxypropylcellulose) (HPC)
[14] = dose: 400.0 mg/kg/injection, schedule: Q01DX001 (ip), vehicle: Klucel (hydroxypropylcellulose) (HPC)

Measured: T/C

CC(=O)CSc1nc2nccnc2[nH]1
inactive: [1] 110 % of control | [2] 110 % of control | [3] 104 % of control | dose: 200.0 mg/kg/injection, schedule: Q01DX009 (ip), vehicle: saline with Tween-80 104 % of control | dose: 400.0 mg/kg/injection, schedule: Q01DX009 (ip), vehicle: saline with Tween-80 107 % of control

O=C(Nc1ccc(F)cc1)Nc1ccccc1C(F)(F)F
inactive: [4] 95 % of control | [5] 97 % of control | [6] 88 % of control

CCCC(=O)NC1CCC(CC2CCCCC2)CC1 (stereo unspecified)
inactive: dose: 50.0 mg/kg/injection, schedule: Q01DX009 (ip), vehicle: other 92 % of control | dose: 100.0 mg/kg/injection, schedule: Q01DX009 (ip), vehicle: other 106 % of control | dose: 100.0 mg/kg/injection, schedule: Q04DX003 (ip), vehicle: other 100 % of control | dose: 200.0 mg/kg/injection, schedule: Q01DX009 (ip), vehicle: other 98 % of control | dose: 200.0 mg/kg/injection, schedule: Q04DX003 (ip), vehicle: other 100 % of control

N#CC1C(=O)NC(=O)C(C#N)C12CCCC(C(F)(F)F)C2 (stereo unspecified)
inactive: dose: 50.0 mg/kg/injection, schedule: Q01DX001 (ip), vehicle: saline 104 % of control | [7] 98 % of control | [8] 106 % of control | [9] 98 % of control

CC(C)c1nc(C=O)c(C=O)n1Cc1ccccc1
inactive: [1] 100 % of control and 90 % of control | dose: 25.0 mg/kg/injection, schedule: Q04DX002 (ip), vehicle: saline with Tween-80 101 % of control and 103 % of control | dose: 25.0 mg/kg/injection, schedule: Q04DX003 (ip), vehicle: carboxymethylcellulose (CMC) 92 % of control | dose: 50.0 mg/kg/injection, schedule: Q01DX001 (ip), vehicle: saline with Tween-80 89 % of control | [2] 102 % of control and 103 % of control | dose: 50.0 mg/kg/injection, schedule: Q04DX002 (ip), vehicle: saline with Tween-80 95 % of control and 101 % of control | dose: 50.0 mg/kg/injection, schedule: Q04DX003 (ip), vehicle: carboxymethylcellulose (CMC) 95 % of control | dose: 100.0 mg/kg/injection, schedule: Q01DX001 (ip), vehicle: saline with Tween-80 96 % of control | [3] 94 % of control and 105 % of control | [10] 105 % of control | dose: 100.0 mg/kg/injection, schedule: Q04DX002 (ip), vehicle: other 98 % of control and 89 % of control | dose: 100.0 mg/kg/injection, schedule: Q04DX002 (ip), vehicle: saline with Tween-80 95 % of control and 86 % of control | dose: 100.0 mg/kg/injection, schedule: Q04DX003 (ip), vehicle: carboxymethylcellulose (CMC) 100 % of control | dose: 200.0 mg/kg/injection, schedule: Q01DX001 (ip), vehicle: saline with Tween-80 94 % of control | [11] 107 % of control | dose: 200.0 mg/kg/injection, schedule: Q04DX002 (ip), vehicle: other 98 % of control

[N-]=[N+]=CC(=O)NCC(N)=O
inactive: dose: 125.0 mg/kg/injection, schedule: Q01DX009 (ip), vehicle: other 110 % of control | dose: 125.0 mg/kg/injection, schedule: Q01DX009 (sc), vehicle: other 91 % of control | dose: 222.0 mg/kg/injection, schedule: Q01DX Z (ip), vehicle: water 121 % of control | dose: 250.0 mg/kg/injection, schedule: Q01DX009 (sc), vehicle: other 97 % of control | dose: 500.0 mg/kg/injection, schedule: Q01DX009 (sc), vehicle: other 103 % of control | dose: 750.0 mg/kg/injection, schedule: Q01DX009 (sc), vehicle: other 97 % of control | dose: 750.0 mg/kg/injection, schedule: Q01DX Z (ip), vehicle: water 104 % of control

Oc1ccc2ccccc2c1/C=C/c1ccncc1
inactive: dose: 6.25 mg/kg/injection, schedule: Q01DX009 (ip), vehicle: Klucel (hydroxypropylcellulose) (HPC) 96 % of control | dose: 12.5 mg/kg/injection, schedule: Q01DX009 (ip), vehicle: Klucel (hydroxypropylcellulose) (HPC) 97 % of control | dose: 25.0 mg/kg/injection, schedule: Q01DX001 (ip), vehicle: Klucel (hydroxypropylcellulose) (HPC) 98 % of control | dose: 25.0 mg/kg/injection, schedule: Q01DX009 (ip), vehicle: Klucel (hydroxypropylcellulose) (HPC) 100 % of control | dose: 50.0 mg/kg/injection, schedule: Q01DX001 (ip), vehicle: Klucel (hydroxypropylcellulose) (HPC) 102 % of control | dose: 50.0 mg/kg/injection, schedule: Q01DX009 (ip), vehicle: Klucel (hydroxypropylcellulose) (HPC) 89 % of control | [12] 105 % of control and 91 % of control

CCOC(=O)c1cnc(C)nc1N
inactive: [12] 97 % of control | [13] 97 % of control | [14] 92 % of control

CN1CC2C3C=CC(C3)C2C1 (stereo unspecified)
inactive: dose: 75.0 mg/kg/injection, schedule: Q01DX001 (ip), vehicle: other 96 % of control | dose: 150.0 mg/kg/injection, schedule: Q01DX001 (ip), vehicle: other 88 % of control

OC1CC2(Cl)C(Cl)=C(Cl)C1(Cl)C2(Cl)Cl (stereo unspecified)
inactive: dose: 75.0 mg/kg/injection, schedule: Q01DX001 (ip), vehicle: carboxymethylcellulose (CMC) 87 % of control | dose: 150.0 mg/kg/injection, schedule: Q01DX001 (ip), vehicle: carboxymethylcellulose (CMC) 95 % of control | dose: 300.0 mg/kg/injection, schedule: Q01DX001 (ip), vehicle: carboxymethylcellulose (CMC) 93 % of control

CC(C)(O)CNC1CCCCC1
inactive: dose: 75.0 mg/kg/injection, schedule: Q01DX001 (ip), vehicle: saline 108 % of control

CSc1ccc(NC(=O)Nc2ccc(Cl)cc2Cl)cc1
inactive: [4] 93 % of control | [5] 88 % of control | [6] 88 % of control

Nc1nc(N)c(-c2ccc(Cl)c(Cl)c2)c(COc2ccc(NC(=O)Nc3ccc(S(=O)(=O)F)c(Cl)c3)c(Cl)c2)n1
inactive: dose: 75.0 mg/kg/injection, schedule: Q01DX001 (ip), vehicle: saline with Tween-80 90 % of control | dose: 150.0 mg/kg/injection, schedule: Q01DX001 (ip), vehicle: saline with Tween-80 98 % of control

C/C(=N/N(C)C)c1ccccc1O
inactive: [4] 103 % of control | [5] 106 % of control | [6] 92 % of control

Nc1cc2c(cc1Br)-c1ccccc1/C2=N\O
inactive: dose: 100.0 mg/kg/injection, schedule: Q01DX001 (ip), vehicle: carboxymethylcellulose (CMC) 102 % of control | dose: 200.0 mg/kg/injection, schedule: Q01DX001 (ip), vehicle: carboxymethylcellulose (CMC) 102 % of control | dose: 400.0 mg/kg/injection, schedule: Q01DX001 (ip), vehicle: carboxymethylcellulose (CMC) 100 % of control

Oc1cc2ccccc2c2c1ccc1ccccc12
inactive: [7] 102 % of control | [8] 111 % of control | [9] 102 % of control

COC(=O)c1ccc(/C=C/c2ccc(S(=O)(=O)F)cc2)cc1
inactive: [12] 91 % of control | [13] 91 % of control | [14] 97 % of control

COc1ccccc1C(C#N)N1CCCN(C(C#N)c2ccccc2OC)C1c1cc(Cl)cc(Cl)c1O (stereo unspecified)
inactive: dose: 100.0 mg/kg/injection, schedule: Q01DX009 (ip), vehicle: saline 103 % of control | dose: 100.0 mg/kg/injection, schedule: Q04DX003 (ip), vehicle: saline 112 % of control | dose: 200.0 mg/kg/injection, schedule: Q01DX009 (ip), vehicle: saline 88 % of control | dose: 200.0 mg/kg/injection, schedule: Q04DX003 (ip), vehicle: saline 97 % of control | dose: 400.0 mg/kg/injection, schedule: Q01DX009 (ip), vehicle: saline 90 % of control | dose: 400.0 mg/kg/injection, schedule: Q04DX003 (ip), vehicle: saline 97 % of control

O=S(=O)(N=S(CCCl)CCCl)c1ccccc1
inactive: [10] 111 % of control | [11] 111 % of control
